Source: patent US20170354147A1, “SAFENING AMINOPYRALID COMPOSITIONS IN BRASSICA SPECIES WITH CLOPYRALID AND METHODS OF USE THEREOF” (Dow AgroSciences LLC, priority 2016, published 2017)
“And” between values parts separate entries of the source, which are not always exact repeats. Identical values can stand only once.

What was measured:
Type in all cases: in vivo
[1] = system: Spring Argentine canola (Brassica napus, BRSNS), Nex 1012 glyphosate-tolerant, BRSNS-RR; assay: Field trials Canada, postemergence crop safety (visual injury) to glyphosate-tolerant Spring Argentine canola
Text: (§1) BRSOM=Brassica oleracea var. acephala subvar. Medullosa (stem kale) BRSSS=Brassica sp. (Aparima Gold swede) BRSNS-RR=Brassica napus (spring rape or Spring Argentine rape, Roundup® Ready) g ae/ha=grams acid equivalent per hectare Mean % visual injury=observed value of percent (%) injury rated visually Observed Mean % visual injury=observed value of percent (%) injury rated visually Colby predicted mean % visual injury=expected value of percent (%) injury as calculated by Colby's equation Mean % visual leafroll=observed value of percent (%) leafroll rated visually Observed Mean % visual leafroll=observed value of percent (%) leafroll rated visually Colby predicted mean % visual leafroll=expected value of percent (%) leafroll as calculated by Colby's equation Mean % visual growth inhibition=observed value of percent (%) growth inhibition rated visually Observed Mean % visual growth inhibition=observed value of percent (%) growth inhibition rated visually Colby predicted mean % visual growth inhibition=expected value of percent (%) growth inhibition as calculated by Colby's equation
Field trials were established in Canada (in Manitoba, Alberta, and Saskatchewan) to evaluate crop safety of herbicide treatments to Spring Argentine canola (Brassica napus, BRSNS). Trials were designed as randomized complete blocks with four replicates. Trials were established as weed-free crop tolerance trials with plot sizes of 2-3 meters (m) by 8-25 m (width×length). The crops were grown using normal cultural practices for fertilization, seeding, and maintenance to ensure good growth of the crop.
The overall injury assessments were based on visual ratings of growth inhibition, leaf deformity, epinasty, chlorosis and delay in maturity. Assessments were made at 8-10 days after treatment (DAT) for an initial rating, 14-17 DAT for an early-season rating, 28-32 DAT for a mid-season rating, and 42-55 DAT for a late-season rating.
Aminopyralid-triisopropanolammonium (TIPA) was applied as Milestone® (240 g ae/L SL); clopyralid-olamine was applied as Lontrel™ 360 (360 g ae/L SL); and glyphosate-dimethylammonium was applied as Vantage™ XRT (480 g ae/L SL).

[2] = system: Aparima Gold swede (Brassica sp., BRSSS); assay: Field trials Canterbury, New Zealand, postemergence crop safety (visual injury, growth inhibition) to Aparima Gold swede
Text: (§2) The following equation was used to calculate the expected activity of mixtures containing two active ingredients, A and B:
(§3) Expected=A+B−(A×B/100) • A=observed efficacy of active ingredient A at the same concentration as used in the mixture; • B=observed efficacy of active ingredient B at the same concentration as used in the mixture.
as §1
Two field trials were established in Canterbury, New Zealand to evaluate crop safety of herbicide treatments to leafy forage brassica crops (Aparima Gold swede (Brassica sp., BRSSS)). Trials were designed as randomized complete blocks with four replicates. All trials were established as weed-free tolerance trials with plot size of 3 meters (m) by 8 m (width×length). The crops were grown using normal cultural practices for fertilization, seeding, and maintenance to ensure good growth of the crop.
All herbicide treatments were applied post-emergence with applications made to the crops at the 3 to 5-leaf stage. Herbicides were applied with backpack sprayers using carbon dioxide (CO2) as a propellant. […] All treatments were applied with Uptake adjuvant (paraffinic oil/Non-Ionic Surfactant blend) at 1% v/v. Phytotoxicity to the crops was assessed visually at several intervals after application as percent overall injury, compared to an untreated control plot. The overall injury assessments were based on visual ratings of growth inhibition, leaf deformity, epinasty, and chlorosis.
Aminopyralid-TIPA was applied as Tordon™ Max Herbicide (30 g ae/L SL), and clopyralid-TIPA was applied as Versatill™ (300 g ae/L SL),

[3] = system: Aparima Gold swede (Brassica sp., BRSSS); assay: Pot trials, postemergence crop safety (visual injury) to Aparima Gold swede
Text: as §2, §3, §1
(§4) Two pot trials were established at Dow AgroSciences Waireka Field Research Station, New Zealand to evaluate crop safety of herbicide treatments to two species of leafy and bulb forage brassica crops (stem kale (Brassica oleracea var. acephala subvar. medullosa, BRSOM) and Aparima Gold swede (Brassica sp., BRSSS)). Trials were designed as randomized complete blocks with five replicates. Trials were established as weed-free tolerance trials. Pot size was 10 by 10 centimeters (cm, width×length). The forage brassica crops were grown using normal cultural practices for fertilization, seeding, watering and maintenance to ensure good growth of the crops.
(§5) All herbicide treatments were applied post-emergence with applications made to the crops at the 2 to 5-leaf stage. Herbicides were applied with a belt spray chamber system with compressed air as a propellant. The sprayer utilized a flat fan spray nozzle calibrated to deliver a uniform spray pattern that provided thorough coverage of the foliage using a 200 liters per hectare (L/ha) spray volume. All treatments were applied with Uptake adjuvant (paraffinic oil/Non-Ionic Surfactant blend) at 0.5% volume per volume (v/v). Phytotoxicity to the crops was assessed visually at several intervals after application as percent overall injury, compared to an untreated control plot. The overall injury assessments were based on visual ratings of growth inhibition, leaf deformity, epinasty, and chlorosis.
(§6) Aminopyralid-triisopropanolammonium (TIPA) was applied as Tordon™ Max Herbicide (30 grams acid equivalent per liter (g ae/L) soluble (liquid) concentrate (SL)), and clopyralid-TIPA was applied as Versatill™ (300 g ae/L SL), The compositions tested, application rates employed, plant species tested, and results are given in Table 1 through Table 3.

[4] = system: stem kale (Brassica oleracea var. acephala subvar. medullosa, BRSOM); assay: Pot trials, postemergence crop safety (visual injury, leafroll) to stem kale
Text: as §2, §3, §1, §4, §5, §6

[5] = 10 g ae/ha, with Glyphosate-DMA 450 g ae/ha
[6] = 20 g ae/ha, with Glyphosate-DMA 450 g ae/ha
[7] = Glyphosate-DMA 450 g ae/ha alone (Aminopyralid-TIPA 0 g ae/ha)

Nc1cc(Cl)nc(C(=O)O)c1Cl [Aminopyralid TIPA, tris (2-hydroxypropyl)ammonium 4-amino-3,6-dichloropyridine-2-carboxylate]
Mean % Visual Injury Early (14-17) DAT [1, 5]: 1.9% | Mean % Visual Injury Initial (8-10 DAT) [1, 5]: 2.8% | Mean % Visual Injury Late (42-55 DAT) [1, 5]: 1.5% | Mean % Visual Injury Mid (28-32 DAT) [1, 5]: 2.3% | Mean % Visual Injury Early (14-17) DAT [1, 6]: 5% | Mean % Visual Injury Initial (8-10 DAT) [1, 6]: 5% | Mean % Visual Injury Late (42-55 DAT) [1, 6]: 0.6% | Mean % Visual Injury Mid (28-32 DAT) [1, 6]: 5.6% | Mean % Visual Growth Inhibition ([2]; 13DAA1, 60 g ae/ha): 28.8% and 28.9% | Mean % Visual Injury ([2]; 13DAA1, 60 g ae/ha): 22.5% | Mean % Visual Injury ([2]; 22DAA1, 60 g ae/ha): 28.8% | Mean % Visual Growth Inhibition ([2]; 28DAA1, 60 g ae/ha): 45.0% | Mean % Visual Injury ([2]; 28DAA1, 60 g ae/ha): 38.8% | Mean % Visual Growth Inhibition ([2]; 56DAA1, 60 g ae/ha): 8.8% | Mean % Visual Injury ([3]; 3DAA1, 60 g ae/ha): 6.8% | Mean % Visual Injury ([3]; 7DAA1, 60 g ae/ha): 9.6% | Mean % Visual Injury ([3]; 15DAA1, 60 g ae/ha): 15.4% | Mean % Visual Injury ([3]; 28DAA1, 60 g ae/ha): 15.6%

O=C(O)c1nc(Cl)ccc1Cl [Clopyralid TIPA, (2RS,2′RS,2″RS)-tris(2-hydroxypropyl)ammonium 3,6-dichloropyridine-2-carboxylate]
Mean % Visual Leafroll ([4]; 1DAA1, 90 g ae/ha): 0.0% | Mean % Visual Leafroll ([4]; 1DAA1, 180 g ae/ha): 0.0% | Mean % Visual Leafroll ([4]; 1DAA1, 360 g ae/ha): 0.0% | Mean % Visual Leafroll ([4]; 4DAA1, 90 g ae/ha): 0.0% | Mean % Visual Leafroll ([4]; 4DAA1, 180 g ae/ha): 0.0% | Mean % Visual Injury ([4]; 7DAA1, 45.0 g ae/ha): 0.0% and 0.7% | Mean % Visual Injury ([4]; 7DAA1, 90.0 g ae/ha): 0.0% and 0.7% | Mean % Visual Injury ([4]; 7DAA1, 180.0 g ae/ha): 0.0% and 0.7% | Mean % Visual Injury ([4]; 7DAA1, 360.0 g ae/ha): 0.0% and 0.7% | Mean % Visual Injury ([4]; 15DAA1, 22.5 g ae/ha): 0.0% | Mean % Visual Injury ([4]; 15DAA1, 45 g ae/ha): 0% | Mean % Visual Injury ([4]; 15DAA1, 90 g ae/ha): 0% | Mean % Visual Leafroll ([4]; 15DAA1, 90 g ae/ha): 0.0% | Mean % Visual Leafroll ([4]; 15DAA1, 180 g ae/ha): 0.0% | Mean % Visual Injury ([4]; 15DAA1, 180.0 g ae/ha): 0.0% | Mean % Visual Leafroll ([4]; 15DAA1, 360 g ae/ha): 0.0% | Mean % Visual Injury ([4]; 15DAA1, 360.0 g ae/ha): 0.0% | Mean % Visual Injury ([4]; 28DAA1, 90.0 g ae/ha): 0.0% | Mean % Visual Injury ([4]; 28DAA1, 360 g ae/ha): 0% | Mean % Visual Leafroll ([4]; 28DAA1, 360 g ae/ha): 0.0% | Mean % Growth Inhibition ([2]; 13DAA1, 45 g ae/ha): 2.8% | Mean % Visual Injury ([2]; 13DAA1, 45 g ae/ha): 0.8% | Mean % Growth Inhibition ([2]; 13DAA1, 90 g ae/ha): 8.8% | Mean % Growth Inhibition ([2]; 13DAA1, 180 g ae/ha): 7.5% | Mean % Visual Injury ([2]; 13DAA1, 180 g ae/ha): 2.3% | Mean % Visual Injury ([2]; 22DAA1, 45 g ae/ha): 0.0% | Mean % Growth Inhibition ([2]; 28DAA1, 180 g ae/ha): 3.8% | Mean % Visual Injury ([2]; 28DAA1, 180 g ae/ha): 3.0% | Mean % Growth Inhibition ([2]; 56DAA1, 45 g ae/ha): 6.0% | Mean % Visual Injury ([3]; 3DAA1, 90 g ae/ha): 2.2% | Mean % Visual Injury ([3]; 7DAA1, 90 g ae/ha): 0.4% | Mean % Visual Injury ([3]; 15DAA1, 90 g ae/ha): 0.0% | Mean % Visual Injury ([3]; 28DAA1, 90 g ae/ha): 0.0%

CNC.O=C(O)CNCP(=O)(O)O [Glyphosate-DMA]
Mean % Visual Injury Early (14-17) DAT [1, 7]: 0.4% | Mean % Visual Injury Initial (8-10 DAT) [1, 7]: 1% | Mean % Visual Injury Late (42-55 DAT) [1, 7]: 0.2% | Mean % Visual Injury Mid (28-32 DAT) [1, 7]: 1.5%
